Here are results for 1 compound from US20240365782A1, “USE OF 2-AMINO-3-METHYLHEXANOIC ACID IN PROMOTING PLANT GROWTH AND INCREASING YIELD” (NANJING AGRICULTURAL UNIVERSITY, priority 2021, published 2024).

Molecules are shown by their SMILES.

This test concerns rice seedlings. The experiment in a line: Soaking seeds: effect on growth of rice seedlings. It counts as in vivo. Conditions: for Chlorophyll content: rice leaves; for Chlorophyll content improved compared with the blank control / Plant height improved compared with the blank control / Root fresh weight / Root fresh weight improved compared with the blank control / Root length / Root length improved compared with the blank control / Plant height: rice seedlings; for Plant height: 3 leaves and 1 heart stage. Here is the method: Rice seeds (variety “Dengliangyou 2108”) were washed clean with distilled water, disinfected with 75% alcohol for 3 minutes, washed with the distilled water for 3 times, and then disinfected with NaClO (5%) for about 10 minutes, taken out, and washed with the distilled water. Residual water on the surfaces of the seeds was absorbed with clean filter paper until the surfaces were dry and clean. 50 g of the healthy, full and uniform seeds were picked and placed in 100-mL conical flasks. 50 mL of a 2-amino-3-methylhexanoic acid aqueous solution with the concentrations of 0 nM, 10 nM, 100 nM and 1,000 nM was added into each bottle respectively, the seeds were soaked for 5 days at room temperature and taken out, 100 rice seeds to be tested with a consistent germination state were respectively selected, uniformly sowed in a rice seedling tray, and covered with sterile nutrient soil, the seedling tray was placed in a culture room at 28° C., and when 3 leaves and 1 heart of the rice seedlings were grown, the plant height, the root length, the root fresh weight and the overground part fresh weight of the rice seedlings were respectively measured.
0.1 g of the rice leaves were accurately cut off for measuring the chlorophyll content. The rice leaves were extracted with 10 mL of an acetone ethanol extracting solution (80% acetone: 95% ethanol at a volume ratio of 1:1) for 24 hours in a dark place. A chlorophyll extracting stock solution was diluted by 3 times with the extracting solution as a reference solution, the light density values at wave lengths of 645 nm and 663 nm were measured with a spectrophotometer, and the chlorophyll content was calculated with a modifier formula of an Amnon method.
In the formula, Ch1a, Ch1b and Ch1t are the concentrations (mg/g·FW) of chlorophyll a, chlorophyll b and total chlorophyll, respectively; n is the dilution ratio; v is the volume of the extracting solution (L); m is the mass (g) of the leaves; and A663 and A645 are absorbance values of 663 nm and 645 nm, respectively.

Regarding `CCCC(C)C(N)C(=O)O` (stereo not drawn) [2-amino-3-methylhexanoic acid], under “seed soaking 10 nM”, the Chlorophyll content amounted to 3.60 ± 0.055b mg/g · FW, the “Chlorophyll content improved compared with the blank control” value is 31%, the “Plant height improved compared with the blank control” value was determined as 9% and the Root fresh weight is reported as 0.039 ± 0.002c g. Where the note is “seed soaking 10 nM”, the “Root fresh weight improved compared with the blank control” value stood at 18%, the Root length is 8.34 ± 0.53b cm, the “Root length improved compared with the blank control” value amounted to 14% and the Plant height amounted to 25.24 ± 0.82b cm. Moreover, where the note is “seed soaking 100 nM”, the Chlorophyll content is on record as 3.82 ± 0.079a mg/g · FW, the “Chlorophyll content improved compared with the blank control” value is reported as 39%, the “Plant height improved compared with the blank control” value is reported as 29% and the Root fresh weight is 0.069 ± 0.007a g. For the same compound, where the note is “seed soaking 100 nM”, the “Root fresh weight improved compared with the blank control” value turned out to be 109%, the Root length came out at 9.30 ± 0.26a cm, the “Root length improved compared with the blank control” value is given as 27% and the Plant height is reported as 29.88 ± 0.16a cm. Also, under “seed soaking 1,000 nM”, the Chlorophyll content worked out at 3.63 ± 0.013b mg/g · FW, the “Chlorophyll content improved compared with the blank control” value was determined as 32%, the “Plant height improved compared with the blank control” value stood at 13% and the Root fresh weight amounted to 0.052 ± 0.003b g. Also, where the note is “seed soaking 1,000 nM”, the “Root fresh weight improved compared with the blank control” value turned out to be 58%, the Root length is on record as 8.30 ± 0.17b cm, the “Root length improved compared with the blank control” value is recorded as 14% and the Plant height came to 26.20 ± 0.32b cm.
